Experiments:
Assay type in all cases: in vivo, male Wistar rats
[1] = test system: insulin resistant high-fat diet-induced obese rats; test: Extract supplementation in insulin resistant high-fat diet-induced obese rats: body weight, food intake, lipid profile, insulin resistance
Protocol: (§1) Extract supplementation. […] The HF fed rats were then sub-divided into four groups of three rats each, i.e. Group 1, negative control/pathological control, treated with distilled water; Group 2, positive control, treated with 150 mg/kg of standard drug metformin (Met); Groups 3 and 4, treated groups, received the P. minima extract at doses of 150 and 300 mg/kg, respectively. Normal control rats also received distilled water throughout the treatment for a period of 12 weeks. All the groups, except the control group, were on high-fat diet during the treatment period.
Blood and tissue collection and sample preparation. For biochemical analysis after 16 weeks of experimental diet, the blood samples were taken from the tail vein after an overnight fast, whereas after 12 weeks of treatment period, rats were subjected to anesthesia and blood was drawn by cardiac puncture. Liver and pancreas samples were prepared and stained with hematoxylin and eosin, as described by Castro and co-workers. The liver was excised and fixed in buffered formalin. […]
Biochemical measurements. […] Fasting blood glucose levels were measured using glucometer (Accu Chek Performa, Australia). Fasting insulin levels were quantified using ultra sensitive rat insulin ELISA kit (Crystal Chem, Downers Grove, USA). Insulin sensitivity was evaluated using Homeostatic Model Assessment (HOMA).

[2] = test system: high-fat diet-induced obese rats; test: Renal toxicity assessment after 12 weeks of treatment; conditions: serum, 150 mg/kg, mean ± SE
Protocol: as §1
Blood and tissue collection and sample preparation. For biochemical analysis after 16 weeks of experimental diet, the blood samples were taken from the tail vein after an overnight fast, whereas after 12 weeks of treatment period, rats were subjected to anesthesia and blood was drawn by cardiac puncture. […]
Biochemical measurements. […] Fasting blood glucose levels were measured using glucometer (Accu Chek Performa, Australia). Fasting insulin levels were quantified using ultra sensitive rat insulin ELISA kit (Crystal Chem, Downers Grove, USA). Insulin sensitivity was evaluated using Homeostatic Model Assessment (HOMA). Serum total cholesterol, triglycerides, HDL, LDL, VLDL, urea, creatnine, AST, ALP, SGPT, and direct and total bilirubins were analysed using automatic analyser (Hitachi, Roche Diagnostics 902, Tokyo, Japan). […]

[3] = test system: high-fat diet-induced obese rats; test: Liver toxicity assessment after 12 weeks of treatment; conditions: serum, 150 mg/kg, mean ± SE
Protocol: as §1
(§2) Blood and tissue collection and sample preparation. For biochemical analysis after 16 weeks of experimental diet, the blood samples were taken from the tail vein after an overnight fast, whereas after 12 weeks of treatment period, rats were subjected to anesthesia and blood was drawn by cardiac puncture. Liver and pancreas samples were prepared and stained with hematoxylin and eosin, as described by Castro and co-workers. The liver was excised and fixed in buffered formalin. The sectioned liver tissue segments were stained with hematoxylin-eosin (H-E) and observed under light microscope.
Biochemical measurements. Blood glucose, serum insulin, total cholesterol, triglycerides, HDL, LDL, very low density lipoproteins ([…]), urea, creatnine, aspartate aminotransferase ([…]), alkaline phosphatase (ALP), serum glutamic pyruvic transaminase (SGPT), and direct and total bilirubin were estimated. Fasting blood glucose levels were measured using glucometer (Accu Chek Performa, Australia). Fasting insulin levels were quantified using ultra sensitive rat insulin ELISA kit (Crystal Chem, Downers Grove, USA). Insulin sensitivity was evaluated using Homeostatic Model Assessment (HOMA). Serum total cholesterol, triglycerides, HDL, LDL, VLDL, urea, creatnine, AST, ALP, SGPT, and direct and total bilirubins were analysed using automatic analyser (Hitachi, Roche Diagnostics 902, Tokyo, Japan).
Evaluation of renal and liver toxicity of P. minima extract: Serum urea, creatnine, aspartate aminotransferase ([…]), alkaline phosphatase (ALP), serum glutamic pyruvic transaminase (SGPT), and total and direct bilirubins were measured to evaluate the toxicity of P. minima towards liver and kidney.

[4] = test system: high-fat diet-induced obese rats; test: Histopathology of liver (H&E staining, light microscopy); conditions: metformin 150 mg/kg; P. minima 150 and 300 mg/kg; versus pathological control (FIG. 8)
Protocol: as §1, §2

## CN(C)C(=N)N=C(N)N [Metformin]
[1]; 150 mg/kg daily, 12 weeks, on high-fat diet, pathological control gained about 109 g, control 75 g
  reduction in body weights: ~35 g
[1]; supplemented groups, 12 weeks of treatment, high-fat diet rats
  average food intake: Decrease
[2]
  Creatnine: 0.35 ± 0 mg/dL
  Urea: 31 ± 0 mg/dL
[3]
  ALP: 49.5 ± 1.5 U/L
  AST (aspartate aminotransferase): 1.5 ± 0.5 U/L
  Direct bilirubin: 0.02 ± 0 mg/dL
  SGPT: 48.5 ± 1.5 U/L
  Total bilirubin: 0.275 ± 0.025 mg/dL
[4]
  hepatic steatosis (liver morphology, H&E): reversed the condition to the normal

From US20160220626A1, “REVERSAL OF INSULIN RESISTANCE AND DYSLIPIDEMIA IN HIGH-FAT DIET-INDUCED OBESE RAT MODELS BY PHYSALIS MINIMA L. EXTRACT” (priority 2015, published 2016)
